These results are taken from PMC10231839, “A glycan receptor kinase facilitates intracellular accommodation of arbuscular mycorrhiza and symbiotic rhizobia in the legume Lotus japonicus” (PLOS Biology, 2023).

One experiment concerns the target T1, EPR3a ectodomain (Lotus japonicus, UniProt Z9OTA2OEF3).
T1 construct: ectodomain residues 25-223; native signal peptide replaced by AcGP67 signal peptide; non-cleavable C-terminal 6xHis; Sf9 insect cells; PNGase F trimmed and BLUE-NHS labelled for MST
T1 sequence (Z9OTA2OEF3 25-223): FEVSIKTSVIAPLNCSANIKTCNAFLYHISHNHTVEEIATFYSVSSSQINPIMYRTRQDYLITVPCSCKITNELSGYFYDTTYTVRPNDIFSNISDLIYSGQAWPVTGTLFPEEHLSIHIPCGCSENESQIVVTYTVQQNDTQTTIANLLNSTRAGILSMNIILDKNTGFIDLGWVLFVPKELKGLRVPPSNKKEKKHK
Description: microscale thermophoresis. Particulars: PBS pH 7.4, 500 mM NaCl, 0.01% Tween20, RT, labelled protein. The format is binding. In general terms: In MST a laser heats a spot of the sample, and binding alters the fluorescence response.

Experiment [1] concerns the target T2, EPR3a intracellular kinase domain (Lotus japonicus, UniProt Z9OTA2OEF3).
T2 construct: intracellular kinase domain residues 255-615; E. coli Rosetta 2; His10-Arg7-SUMO tag cut by 3C protease; lambda-phosphatase dephosphorylated
T2 sequence (Z9OTA2OEF3 255-615): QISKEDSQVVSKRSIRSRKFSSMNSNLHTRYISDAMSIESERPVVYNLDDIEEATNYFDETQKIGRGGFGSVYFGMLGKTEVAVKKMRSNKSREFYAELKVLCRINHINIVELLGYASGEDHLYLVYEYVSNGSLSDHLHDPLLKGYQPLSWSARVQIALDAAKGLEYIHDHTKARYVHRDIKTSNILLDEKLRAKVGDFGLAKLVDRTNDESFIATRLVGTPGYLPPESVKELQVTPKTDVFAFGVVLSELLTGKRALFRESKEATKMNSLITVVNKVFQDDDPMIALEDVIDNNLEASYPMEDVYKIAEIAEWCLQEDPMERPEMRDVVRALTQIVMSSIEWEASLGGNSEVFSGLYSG
The experiment can be described thus: autophosphorylation, SDS-PAGE with Pro-Q Diamond stain. The experiment is classed as biochemical. Particulars: 20 μM ATP, 10 mM MgCl2, pH 8.0, 1 h.

The target of experiment [2] is T3, EPR3 intracellular kinase domain (Lotus japonicus, UniProt D3KU53).
T3 construct: gene LYS3; intracellular kinase domain residues 259-620; E. coli Rosetta 2; His10-Arg7-SUMO tag cut by 3C protease; lambda-phosphatase dephosphorylated
T3 sequence (D3KU53 entry or part of it): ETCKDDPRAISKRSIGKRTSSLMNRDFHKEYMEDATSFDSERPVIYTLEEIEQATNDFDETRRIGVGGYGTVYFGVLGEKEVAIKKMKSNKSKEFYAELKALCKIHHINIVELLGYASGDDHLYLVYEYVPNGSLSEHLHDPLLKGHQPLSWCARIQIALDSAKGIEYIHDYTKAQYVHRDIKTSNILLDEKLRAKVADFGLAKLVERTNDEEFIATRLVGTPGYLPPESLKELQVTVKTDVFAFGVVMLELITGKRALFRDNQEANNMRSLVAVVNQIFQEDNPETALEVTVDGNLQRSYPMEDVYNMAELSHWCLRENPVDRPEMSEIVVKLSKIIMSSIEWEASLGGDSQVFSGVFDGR
The experiment is described as above. The experiment is classed as biochemical. Particulars: 20 μM ATP, 10 mM MgCl2, pH 8.0, 1 h.

For the molecule `OC[C@H]1O[C@@H](O[C@@H]2[C@@H](O)[C@H](O[C@@H]3[C@@H](O)[C@H](O[C@@H]4[C@@H](O)[C@H](O[C@@H]5[C@@H](O)[C@H](O[C@H]6[C@H](O)[C@@H](CO)OC(O)[C@@H]6O)O[C@H](CO)[C@H]5O)O[C@H](CO)[C@H]4O)O[C@H](CO)[C@H]3O)O[C@H](CO)[C@H]2O)[C@H](O)[C@@H](O)[C@@H]1O` (some centres unmarked) [laminarihexaose], at EPR3a ectodomain, the Kd is about 670 µM.

With S. indica β-1,3/β-1,6 decasaccharide, the affinity at EPR3a ectodomain (first (high-affinity) of two binding events), expressed as Kd, was 51 ± 23 µM.

As for M. loti EPS, binding on EPR3a ectodomain was put at a Kd of 44.4 ± 11.2 µM.

The molecule R. leguminosarum EPS gave a Kd at EPR3a ectodomain of 12.5 ± 4 µM.

The molecule S. meliloti EPS yielded a Kd on EPR3a ectodomain of 937 ± 389 µM.

`OC[C@H]1O[C@@H](O[C@@H]2[C@@H](O)[C@H](O[C@@H]3[C@@H](O)[C@H](O[C@@H]4[C@@H](O)[C@H](O[C@H]5[C@H](O)[C@@H](CO)OC(O)[C@@H]5O)O[C@H](CO)[C@H]4O)O[C@H](CO)[C@H]3O)O[C@H](CO)[C@H]2O)[C@H](O)[C@@H](O)[C@@H]1O` (some centres unmarked) [laminaripentaose] had a Kd on EPR3a ectodomain of about 850 µM.

`Nc1ncnc2c1ncn2[C@@H]1O[C@H](COP(=O)(O)OP(=O)(O)OP(=O)(O)O)[C@@H](O)[C@H]1O` [ATP]: the “autophosphorylation, SDS-PAGE with Pro-Q Diamond stain” value is “EPR3a and EPR3 are able to autophosphorylate” in experiment [1]; “EPR3a and EPR3 are able to autophosphorylate” in experiment [2].

Broadly, the Kd is the constant that tells how readily two partners part at equilibrium.
